Where two headings read alike, the source gives them in different places.
Key:
CD-1 mouse lungs = assay: In vivo transfection of CD-1 mice with i.v. lipoplex (pCMV-Luc), luciferase activity assay in organs; conditions: for Relative Activity of MMET Analogues-Cholesterol Liposomes: cationic lipid:cholesterol 1:1 mol/mol, in vivo transfection to the lungs, MMET = 100; for rank order of transfection activity in lungs: liposomes of pure cationic lipid, charge ratio 8:1 to 16:1, 12 hours after i.v.; for transfection level versus trimethylammonium counterparts (DOTMA, DOTAP): 4:1 +/− charge ratio, pure cationic lipid liposomes
Description: Cationic liposomes of formulas (I-VI) were prepared from pure cationic lipids or as equimolar mixtures of a cationic lipid and neutral lipids, such as DOPE, or cholesterol, using extrusion or sonication methods. One hundred μmoles of a cationic lipid or one hundred μmoles each of a cationic lipid and a selected neutral lipid were dissolved in a round bottom flask. The organic solvent was then evaporated under vacuum at 45° C. to form a thin lipid film. The residual solvent was further removed under high vacuum for one hour. The lipid film was then suspended with 10 ml of endotoxin-free distilled water (Gibco, BRL, MD) at room temperature for one hour, and subsequently extruded using 0.8 μm, 0.4 μm and 0.2 μm pore size filters. The extruded multilammelar liposomes have sizes of 850 nm, 350 nm and 280 nm in diameter, respectively. Some of the extruded liposomes were further sonicated in a bath sonicator for 2-5 minutes to form unilamellar liposomes with a size of about 100 nm in diameter. The size of the liposomes were measured by 90° laser dynamic light scattering using a Zetamaster submicron particle analyzer.
(§1) For transfection in vivo, normal CD-1 mouse was used as a model. The charge ration of lipid to DNA (±) was used throughout the study, assuming that 25 μg of DNA contains about 75 nmoles of negative charges, and one nmole of quaternary ammonium cationic lipid contains one nmole of positive charges. To prepare lipoplex for transfection, 25 μg or an indicated amounts of pCMV DNA was diluted in 100 μl of distilled water (endotoxin screened, Gibco). The diluted DNA solution was added to a polystyrene tube containing an indicated amount of cationic liposomes in 100 μl and was mixed immediately. The complexes were kept at + room temperature for 30 minutes before being administered to the animals via tail vein.
Luciferase activity was measured in various organs, including lung, liver spleen, and heart from transfected animals, using a luciferase activity assay kit (Promega, Madison, Wis.) and a luminometer (Moonlight 3010). Organs were collected from the animals at 12 hours post transfection or at an indicated time after injection of lipoplex. About 0.2 g of liver were removed from the animal. One ml of 1× lysis buffer (Promega, Madison, Wis.), supplemented with 0.1% Triton-X100 was added to collected organs. Each organ was homogenized for 10-20 seconds using a handheld homogenizer (Dremel, Racine, Wis.) as it top speed (about 30,000 rpm). The samples were centrifuged in a microcentrifuge for three minutes. A 10 μL of the cleared supernatant, containing approximately 100-200 μg proteins, was measured for luciferase activity. Protein content in the supernatants was determined with BioRad dye reagent method, using albumin as a standard. The luciferase activities were normalized to the relative light unit per milligram of extracted protein.

CD-1 mice [1] = assay type: in vivo; conditions: for safety of lipoplex for CD-1 mice: 25 μg of DNA, pure cationic lipid liposomes, 1:16 charge ratio; for Number of animals died per group (n = 3): CD-1 mice (20 g), charge ratio 16:1+/−, counted after 48 h; for relative toxicity of liposome compositions: escalating doses of lipoplexes, groups of three animals, first 48 hours
Description: as §1
Table 2 below lists the number of animals that expired during the first 48 hours of the experiment period, when escalating doses of the lipoplexes were given to a group of three animals. Lipoplex containing 25 μg of DNA and DOTMA or MMET liposomes at 1:16 charge ratio or with a mixture of cholesterol-DOTMA, or cholesterol-MMET at 1:4 charge ratios appear to be quite safe for CD-1 mice. Higher charge ratios of lipid to DNA and high doses of lipoplex were required to reach a lethal dose. […] In general, MMET containing liposomes were less toxic than the ones containing DOTMA.

CD-1 mice [2] = conditions: mouse, in vivo

CCCCCCCC/C=C\CCCCCCCCOCC[N+]1(CCOCCCCCCCC/C=C\CCCCCCCC)CCOCC1.[Cl-] [DODHEM, N,N-di-(2-oleyloxyethyl)-mopholinium chloride]
Relative Activity of MMET Analogues-Cholesterol Liposomes (CD-1 mouse lungs): 74.54

CCCCCCCC/C=C\CCCCCCCC[N+]1(CCCCCCCC/C=C\CCCCCCCC)CCOCC1.[Cl-] [DOMor, N,N-dioleylmorpholinium chloride]
Relative Activity of MMET Analogues-Cholesterol Liposomes (CD-1 mouse lungs): 76.09

CCCCCCCC/C=C\CCCCCCCC(=O)OCC(C[N+](C)(C)C)OC(=O)CCCCCCC/C=C\CCCCCCCC (centres unmarked) [DOTAP, 1,2-dioleoyl-3-trimethylammonium propane, reference compound]
Relative Activity of MMET Analogues-Cholesterol Liposomes (CD-1 mouse lungs): 28.14
rank order of transfection activity in lungs (CD-1 mouse lungs): MMET≧DOTMA>MMES>DOTAP>LADOP

CCCCCCCC/C=C\CCCCCCCCOCC(C[N+](C)(C)C)OCCCCCCCC/C=C\CCCCCCCC.[Cl-] (centres unmarked) [DOTMA, 1,2,-dioleyl-3-N,N,N-trimethyl amino propane chloride, reference compound]
safety of lipoplex for CD-1 mice (CD-1 mice [1]): quite safe
Number of animals died per group (n = 3) (CD-1 mice [1]; DNA dosage 25 ug): (0)
Number of animals died per group (n = 3) (CD-1 mice [1]; DNA dosage 30 ug): (2)
Number of animals died per group (n = 3) (CD-1 mice [1]; DNA dosage 45 ug): (3)
relative toxicity of liposome compositions (CD-1 mice [1]): somewhere in between
rank order of transfection activity in lungs (CD-1 mouse lungs): MMET≧DOTMA>MMES>DOTAP>LADOP

CCCCCCCC/C=C\CCCCCCCC(=O)OCC(CNC(=O)[C@@H](N)CCCCN)OC(=O)CCCCCCC/C=C\CCCCCCCC (stereo partly drawn) [LADOP, N-[(2,3-dioleoyloxy)propyl]-L-lysinamide]
tolerance of repeated intravenous doses (CD-1 mice [2]): tolerated repeated intravenous doses of DNA/LADOP complex well
duration of transgene expression in lungs (disappearing by) (CD-1 mouse lungs; liposome/DNA complex delivered intravenously, after transfection): ≤ 48 h
rank order of transfection activity in lungs (CD-1 mouse lungs): MMET≧DOTMA>MMES>DOTAP>LADOP
gene expression after second intravenous transfection (CD-1 mouse lungs; second injection at 48 hours after the first injection): almost identical gene expression and duration

CCCCCCCC/C=C\CCCCCCCC(=O)OCC(C[N+]1(C)CCOCC1)OC(=O)CCCCCCC/C=C\CCCCCCCC (centres unmarked) [MMES, N-3-methyl-1,2-dioleoyl-3-morpholinium propane]
transfection level versus trimethylammonium counterparts (DOTMA, DOTAP) (CD-1 mouse lungs; lungs): higher levels of transfection
Relative Activity of MMET Analogues-Cholesterol Liposomes (CD-1 mouse lungs): 48.72
rank order of transfection activity in lungs (CD-1 mouse lungs): MMET≧DOTMA>MMES>DOTAP>LADOP

CCCCCCCC/C=C\CCCCCCCC(=O)OCC(C[N+]1(C)CCCC1)OC(=O)CCCCCCC/C=C\CCCCCCCC (centres unmarked) [MPES, N-3-methyl-1,2-dioleoul-3-pyrrolinum propane]
Relative Activity of MMET Analogues-Cholesterol Liposomes (CD-1 mouse lungs): 1.87

CCCCCCCC/C=C\CCCCCCCCOCC(C[N+]1(C)CCCC1)OCCCCCCCC/C=C\CCCCCCCC (centres unmarked) [MPET, -3-methyl-1,2-dioleyl-3-pyrrolinium propane]
Relative Activity of MMET Analogues-Cholesterol Liposomes (CD-1 mouse lungs): 55.49

CCCCCCCC/C=C\CCCCCCCCOCC(CN1CCOCC1)OCCCCCCCC/C=C\CCCCCCCC (centres unmarked) [dioleyl morpholino propanediol, 1,2-dioleyl-N-3-morpholino propane]
in vivo transfection activity of MMET analogues (in words) (CD-1 mouse lungs; formulated with cholesterol at 1:1 mole ratios, lungs): only weak activity

N-3-methyl-1,2-dioleyl-3-morpholinium propane chloride [MMET]
safety of lipoplex for CD-1 mice (CD-1 mice [1]): quite safe
Number of animals died per group (n = 3) (CD-1 mice [1]; DNA dosage 25 ug): (0)
Number of animals died per group (n = 3) (CD-1 mice [1]; DNA dosage 30 ug): (0)
Number of animals died per group (n = 3) (CD-1 mice [1]; DNA dosage 45 ug): (1)
relative toxicity of liposome compositions (CD-1 mice [1]): somewhere in between
transfection level versus trimethylammonium counterparts (DOTMA, DOTAP) (CD-1 mouse lungs; lungs): higher levels of transfection
Relative Activity of MMET Analogues-Cholesterol Liposomes (CD-1 mouse lungs): 100
transfection activity versus prior art liposomes composed of DOTMA and/or DOTAP or DOTMA-cholesterol (CD-1 mouse lungs; i.v. to mice, luciferase after 12 hours): much higher
rank order of transfection activity in lungs (CD-1 mouse lungs): MMET≧DOTMA>MMES>DOTAP>LADOP
